Each structure is given as a SMILES string.

The text below walks through data of US10428083B2, “Heterocyclylmethyl-thienouracile as antagonists of the adenosine-A2B-receptor” (BAYER PHARMA AKTIENGESELLSCHAFT, priority 2015, dated 2019).

In this test the target is human adenosine A2b receptor (Homo sapiens (Human), UniProt P29275). In words: Cellular in vitro reporter gene test for A2b receptor activity (CHO-K1, CRE-luciferase, NECA stimulation). The format is cell-based. Particulars: recombinant CHO-K1 cell line, CRE-luciferase reporter, antagonism of EC50 concentration of NECA; in some cases means of several determinations, rounded to two significant figures; read-out: A2b receptor IC50. The method in brief: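 CHO-K1 cells with CRE-driven luciferase; antagonists co-incubated with NECA at its EC50, determined in a pre-experiment on each test day. Luciferase read by luminescence 3 h after NECA addition.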
Chain of human adenosine A2b receptor (P29275 whole entry): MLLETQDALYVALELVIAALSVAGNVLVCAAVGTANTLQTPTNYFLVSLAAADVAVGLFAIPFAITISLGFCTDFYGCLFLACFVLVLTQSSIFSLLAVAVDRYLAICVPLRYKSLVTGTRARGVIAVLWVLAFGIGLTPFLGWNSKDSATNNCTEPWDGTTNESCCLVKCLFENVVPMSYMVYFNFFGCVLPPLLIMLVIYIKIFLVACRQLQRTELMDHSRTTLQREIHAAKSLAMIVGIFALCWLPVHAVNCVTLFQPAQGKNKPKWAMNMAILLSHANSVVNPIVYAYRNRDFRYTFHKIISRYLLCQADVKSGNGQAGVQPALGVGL
(In general: A reporter such as luciferase makes a cellular process visible.)

As to `CCn1c(=O)c2c(C)c(CN3CCN(C(C)C)C3=S)sc2n(CCOC)c1=O` [Example 174, 3-Ethyl-6-[(3-isopropyl-2-thioxoimidazolidin-1-yl)methyl]-1-(2-methoxyethyl)-5-methylthieno[2,3-d]pyrimidine-2,4(1H,3H)-dione], the IC50 – broadly, the concentration that inhibits the measured activity by half – worked out at 49 nM.

Regarding `Cc1c(Cn2cc[nH]c2=O)sc2c1c(=O)n(CC(F)(F)F)c(=O)n2CC1CCCO1` (single isomer, unassigned) [Example 343, 5-Methyl-6-[(2-oxo-2,3-dihydro-1H-imidazol-1-yl)methyl]-1-(tetrahydrofuran-2-ylmethyl)-3-(2,2,2-trifluoroethyl)thieno[2,3-d]pyrimidine-2,4(1H,3H)-dione], the IC50 turned out to be 25 nM.

In the case of `COCCn1c(=O)c2c(C)c(CN3CCNC3=O)sc2n(CCOC)c1=O` [Example 231, 1,3-Bis(2-methoxyethyl)-5-methyl-6-[(2-oxoimidazolidin-1-yl)methyl]thieno[2,3-d]pyrimidine-2,4(1H,3H)-dione], the IC50 was 21 nM.

As for `C=CCn1cnn(Cc2sc3c(c2C)c(=O)n(CC)c(=O)n3CCOC)c1=O` [Example 112, 6-[(4-Allyl-5-oxo-4,5-dihydro-1H-1,2,4-triazol-1-yl)methyl]-3-ethyl-1-(2-methoxyethyl)-5-methylthieno[2,3-d]pyrimidine-2,4(1H,3H)-dione], the IC50 was 500 nM.

As for `Cc1c(CN2CCNC2=S)sc2c1c(=O)n(CC(F)F)c(=O)n2CC1CCCO1` (racemic) [Example 162, 3-(2,2-Difluoroethyl)-5-methyl-1-(tetrahydrofuran-2-ylmethyl)-6-[(2-thioxoimidazolidin-1-yl)methyl]thieno[2,3-d]pyrimidine-2,4(1H,3H)-dione], the half-maximal inhibitory concentration (IC50) is 7.9 nM.

Regarding `COCCn1c(=O)c2c(C)c(CN3CCNC3=NC#N)sc2n(CC2CCCO2)c1=O` (single isomer, unassigned) [Example 368, [1-{[3-(2-Methoxyethyl)-5-methyl-2,4-dioxo-1-(tetrahydrofuran-2-ylmethyl)-1,2,3,4-tetrahydrothieno[2,3-d]pyrimidin-6-yl]methyl}imidazolidin-2-ylidene]cyanamide], the 50% inhibitory concentration (IC50) amounted to 82 nM.

In the case of `Cc1c(CN2CCNC(=O)C2=O)sc2c1c(=O)n(CC(F)F)c(=O)n2CCC(F)(F)F` [Example 125, 3-(2,2-Difluoroethyl)-6-[(2,3-dioxopiperazin-1-yl)methyl]-5-methyl-1-(3,3,3-trifluoropropyl)thieno[2,3-d]pyrimidine-2,4(1H,3H)-dione], the half-inhibitory concentration (IC50) worked out at 8.8 nM.

Regarding `CCn1c(=O)c2c(C)c(CN3CCNC3=O)sc2n(CF)c1=O` [Example 307, 3-Ethyl-1-(fluoromethyl)-5-methyl-6-[(2-oxoimidazolidin-1-yl)methyl]thieno[2,3-d]pyrimidine-2,4(1H,3H)-dione], the IC50 was 8.1 nM.

As for `Cc1c(CN2CCNC(=O)C2=O)sc2c1c(=O)n(C(C)C(F)(F)F)c(=O)n2CCC(F)(F)F` (racemic) [Example 490, 6-[(2,3-Dioxopiperazin-1-yl)methyl]-5-methyl-3-(1,1,1-trifluoropropan-2-yl)-1-(3,3,3-trifluoropropyl)thieno[2,3-d]pyrimidine-2,4(1H,3H)-dione], the IC50 is 19 nM.

Regarding `Cc1c(CN2CCNC2=S)sc2c1c(=O)n(CC(F)(F)F)c(=O)n2CCC(F)(F)F` [Example 152, 5-Methyl-6-[(2-thioxoimidazolidin-1-yl)methyl]-3-(2,2,2-trifluoroethyl)-1-(3,3,3-trifluoropropyl)thieno[2,3-d]pyrimidine-2,4(1H,3H)-dione], the IC50 came to 0.79 nM.

Consider `[2H]C([2H])(c1sc2c(c1C)c(=O)n([C@@H](C)C(F)(F)F)c(=O)n2CCOC)N1CCNC1=O` [Example 502, 1-(2-Methoxyethyl)-5-methyl-6-[(2-oxoimidazolidin-1-yl)(dideutero)methyl]-3-[(2S)-1,1,1-trifluoropropan-2-yl]thieno[2,3-d]pyrimidine-2,4(1H,3H)-dione], for which the IC50 is 18 nM.

For the molecule `Cc1c(CN2CCNC2=S)sc2c1c(=O)n(C(C)C)c(=O)n2CCCF` [Example 298, 1-(3-Fluoropropyl)-3-isopropyl-5-methyl-6-[(2-thioxoimidazolidin-1-yl)methyl]thieno[2,3-d]pyrimidine-2,4(1H,3H)-dione], the IC50 amounted to 2.4 nM.

For the molecule `Cc1c(CN2CCNC2=O)sc2c1c(=O)n(CC(F)F)c(=O)n2CCC(F)(F)F` [Example 214, 3-(2,2-Difluoroethyl)-5-methyl-6-[(2-oxoimidazolidin-1-yl)methyl]-1-(3,3,3-trifluoropropyl)thieno[2,3-d]pyrimidine-2,4(1H,3H)-dione], the 50% inhibitory concentration (IC50) was found to be 3.1 nM.

On to `CCn1c(=O)c2c(C)c(CN3CCNC3=O)sc2n(Cc2nonc2C)c1=O` [Example 82, 3-Ethyl-5-methyl-1-[(4-methyl-1,2,5-oxadiazol-3-yl)methyl]-6-[(2-oxoimidazolidin-1-yl)methyl]thieno[2,3-d]pyrimidine-2,4(1H,3H)-dione], for which the IC50 is 17 nM.

Consider `Cc1c(CN2CCNC2=O)sc2c1c(=O)n(CC(C)(C)C)c(=O)n2CCC(F)(F)F` [Example 200, 3-(2,2-Dimethylpropyl)-5-methyl-6-[(2-oxoimidazolidin-1-yl)methyl]-1-(3,3,3-trifluoropropyl)thieno[2,3-d]pyrimidine-2,4(1H,3H)-dione], for which the IC50 came to 2.9 nM.

Consider `Cc1c(CN2CCNC2=NC#N)sc2c1c(=O)n(C(C)C)c(=O)n2CCC(F)(F)F` [Example 262, [1-{[3-Isopropyl-5-methyl-2,4-dioxo-1-(3,3,3-trifluoropropyl)-1,2,3,4-tetrahydrothieno[2,3-d]pyrimidin-6-yl]methyl}imidazolidin-2-ylidene]cyanamide], for which the IC50 was determined as 2.3 nM.

`COC(=O)N=C1NCCN1Cc1sc2c(c1C)c(=O)n(C(C)C)c(=O)n2CC1CCO1` (racemic) [Example 379, Methyl [1-{[3-isopropyl-5-methyl-1-(oxetan-2-ylmethyl)-2,4-dioxo-1,2,3,4-tetrahydrothieno[2,3-d]pyrimidin-6-yl]methyl}imidazolidin-2-ylidene]carbamate]: the concentration for half-maximal inhibition (IC50) was 13 nM.

Turning to `COCCn1c(=O)n(CCc2ccccc2)c(=O)c2c(C(F)(F)F)c(CN3CCN(C)C3=O)sc21` [Example 105, 1-(2-Methoxyethyl)-6-[(3-methyl-2-oxoimidazolidin-1-yl)methyl]-3-(2-phenylethyl)-5-(trifluoromethyl)thieno[2,3-d]pyrimidine-2,4(1H,3H)-dione], the IC50 came to 14 nM.

In the case of `COCCn1c(=O)n(CC(C)(C)OC)c(=O)c2c(C)c(CN3CCNC3=O)sc21` [Example 238, 1-(2-Methoxyethyl)-3-(2-methoxy-2-methylpropyl)-5-methyl-6-[(2-oxoimidazolidin-1-yl)methyl]thieno[2,3-d]pyrimidine-2,4(1H,3H)-dione], the IC50 was found to be 99 nM.

Consider `C=C(C)CCn1c(=O)c2c(C)c(CN3CCNC3=O)sc2n(CCOC)c1=O` [Example 319, 1-(2-Methoxyethyl)-5-methyl-3-(3-methylbut-3-en-1-yl)-6-[(2-oxoimidazolidin-1-yl)methyl]thieno[2,3-d]pyrimidine-2,4(1H,3H)-dione], for which the IC50 is 2.4 nM.

Consider `Cc1c(Cn2cc[nH]c2=O)sc2c1c(=O)n(CC(F)(F)F)c(=O)n2CCC(F)(F)F` [Example 339, 5-Methyl-6-[(2-oxo-2,3-dihydro-1H-imidazol-1-yl)methyl]-3-(2,2,2-trifluoroethyl)-1-(3,3,3-trifluoropropyl)thieno[2,3-d]pyrimidine-2,4(1H,3H)-dione], for which the IC50 amounted to 5.6 nM.

Regarding `Cc1c(CN2CCNC2=O)sc2c1c(=O)n(C(C)C)c(=O)n2CC1COC1` [Example 189, 3-Isopropyl-5-methyl-1-(oxetan-3-ylmethyl)-6-[(2-oxoimidazolidin-1-yl)methyl]thieno[2,3-d]pyrimidine-2,4(1H,3H)-dione], the IC50 is 17 nM.

Take `COCCn1c(=O)n(C(C)C(F)(F)F)c(=O)c2c(C)c(CN3CCNC3=O)sc21` (single isomer, unassigned) [Example 499, 1-(2-Methoxyethyl)-5-methyl-6-[(2-oxoimidazolidin-1-yl)methyl]-3-(1,1,1-trifluoropropan-2-yl)thieno[2,3-d]pyrimidine-2,4(1H,3H)-dione]: the half-inhibitory concentration (IC50) was found to be 230 nM.

Consider `COCCn1c(=O)n(C(C)C(F)(F)F)c(=O)c2c(C)c(CN3CCNC3=NC(=O)OC)sc21` (single isomer, unassigned) [Example 514, Methyl [1-{[1-(2-methoxyethyl)-5-methyl-2,4-dioxo-3-(1,1,1-trifluoropropan-2-yl)-1,2,3,4-tetrahydrothieno[2,3-d]pyrimidin-6-yl]methyl}imidazolidin-2-ylidene]carbamate], for which the IC50 came to 32 nM.

With `Cc1c(Cn2nc[nH]c2=O)sc2c1c(=O)n(CC(F)(F)F)c(=O)n2CC1CCCO1` (single isomer, unassigned) [Example 435, 5-Methyl-6-[(5-oxo-4,5-dihydro-1H-1,2,4-triazol-1-yl)methyl]-1-(tetrahydrofuran-2-ylmethyl)-3-(2,2,2-trifluoroethyl)thieno[2,3-d]pyrimidine-2,4(1H,3H)-dione], the IC50 is 43 nM.

As for `CCCN1CCN(Cc2sc3c(c2C)c(=O)n(CCc2ccccc2)c(=O)n3CCOC)C1=O` [Example 240, 1-(2-Methoxyethyl)-5-methyl-6-[(2-oxo-3-propylimidazolidin-1-yl)methyl]-3-(2-phenylethyl)thieno[2,3-d]pyrimidine-2,4(1H,3H)-dione], the IC50 was 19 nM.

As to `COC(=O)N=C1NCCN1Cc1sc2c(c1C)c(=O)n(CC(C)OC)c(=O)n2CCC(F)(F)F` (single isomer, unassigned) [Example 474, Methyl [1-{[3-(2-methoxypropyl)-5-methyl-2,4-dioxo-1-(3,3,3-trifluoropropyl)-1,2,3,4-tetrahydrothieno[2,3-d]pyrimidin-6-yl]methyl}imidazolidin-2-ylidene]carbamate], the IC50 is 5.6 nM.
